In publication PMC9495829, “Quercetin Is a Novel Inhibitor of the Choline Kinase of Streptococcus pneumoniae” (Antibiotics, 2022):

Biological target: T1, choline kinase of Streptococcus pneumoniae (sChoK) (Streptococcus pneumoniae, UniProt Q8DPI4)
T1 construct: gene pck
Assay: colorimetric choline kinase assay (IC50); PK/LDH kinetics on purified recombinant sChoK (Ki […] +/- […], unit inferred)
Type: biochemical

T1 sequence (Q8DPI4 entry or part of it): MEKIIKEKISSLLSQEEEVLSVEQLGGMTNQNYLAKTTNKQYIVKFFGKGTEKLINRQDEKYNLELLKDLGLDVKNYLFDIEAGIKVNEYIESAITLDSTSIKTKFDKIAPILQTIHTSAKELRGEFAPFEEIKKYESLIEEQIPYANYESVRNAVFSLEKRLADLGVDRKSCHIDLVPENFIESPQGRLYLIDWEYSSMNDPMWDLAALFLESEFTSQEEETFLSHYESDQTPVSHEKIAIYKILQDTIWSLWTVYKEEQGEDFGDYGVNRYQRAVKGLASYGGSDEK

O=c1c(O)c(-c2ccc(O)c(O)c2)oc2cc(O)cc(O)c12 [quercetin]
IC50: 6.18 µM
